Experimental data: patent US11186606B2, “Compositions and methods of modulating the immune response by activating alpha protein kinase 1” (Shanghai Yao Yuan Biotechnology Co., Ltd., priority 2017, dated 2021)

What was measured:
[1] = tested on: phosphatase activity in the serum; test: Incubation of H1b-ADP with FBS, product analysed by LC-MS; assay type: in vitro ADME, bovine; settings: pre-treatment of H1b-ADP before serum incubation
From the text: FBS contains 110-352 U/ml alkaline phosphatase.

ALPK1 [2] = test: IL8 secretion in HEK293 cells (IL8 ELISA) as indicator of ALPK1 activation; settings: added to the FBS-containing medium, HEK293 cells, IL8 secretion
CT26 cells = test: CT26 tumor xenograft model, tumor volume; assay type: in vivo, BALB/c mice
Protocol: We used a CT26 tumor xenograft model to test the anti-cancer activity of H1b-ADP. Tumor cells (2×10^5 per 100 uL CT26 cells) were inoculated subcutaneously into the right flank of BALB/c mice. At day 6, mice whose tumors had reached 3-5 mm in diameter were randomized and grouped into three groups (n=8 each group), control, HMP-1bP (580 ug), and H1b-ADP (1.2 ug). Injections were performed using a total volume of 20 uL at days 6, 8, 10, 12, and 14 post inoculation. Tumor volumes were calculated every 2 days from caliper measurements of tumor dimension using the formula (L×W^2)/2, where L is the longer measurement.
To test whether H1b-ADP could augment an anti-tumor response by a checkpoint inhibitor, we tested the effects of co-administration with an anti-PD1 antibody. Tumor cells (2×10^5 per 100 μL CT26 cells) were inoculated subcutaneously into the left and right flanks of BALB/c mice. At day 7, mice whose tumors had reached 5 mm in diameter were randomized and grouped (n=8 each group) into the following four groups: anti-PD1 antibody; rat IgG; H1b-ADP+rat IgG; H1b-ADP+anti-PD1 antibody. We utilized RMP1-14 as the anti-PD1 antibody (10 mg/kg) and a rat IgG 2a (2A3) as the control IgG. Each of the anti-PD-1 antibody and the control IgG was administered intraperitoneally in a 200 μL volume on days 6, 10, 12, and 17 post-inoculation. H1b-ADP (6.2 μg) was intratumorally injected in a 20 μL volume at day 6, 8, 10, 12, and 15. Tumor volumes were calculated every 2 days from caliper measurements of tumor dimensions using the formula (L×W^2)/2, where L is the longer measurement. The results are shown in FIG. 13A for injected tumors and FIG. 13B for distant tumors. […]
The experiment was carried out as combo experiments of anti-PD1 except for the following variations. At day 6, mice whose tumors had reached 5 mm in diameter were randomized and grouped into the following four groups: c-di-AM(PS)2; PBS; H1b-ADP; H1b-ADP+c-di-AM(PS)2. We utilized c-di-AM(PS)2 as the STING agonist. Each of the c-di-AM(PS)2 (1 μg) and H1b-ADP (6.2 μg) was administered intratumorally in a 20 μL volume on days 6, 7, and 9 post-inoculation.
The experiment was carried out as combo experiments of anti-PD-1 except for the following variations. At day 6, mice whose tumors had reached 5 mm in diameter were randomized and grouped into the following four groups: anti-CD4 antibody (GK1.5 clone, BE0003-1, BioXcell); rat IgG; H1b-ADP+rat IgG; H1b-ADP+anti-CD4 antibody. Each of the anti-CD4 antibody (200 μg) and the control IgG (200 μg) was administered intraperitoneally in a 200 μL volume on days 3, 4, 8 post-inoculation. H1b-ADP (6.2 μg) was administered intratumorally in a 20 μL volume on days 6, 8, 10, 12, 14 post-inoculation.
The experiment was carried out as combo experiments of anti-PD-1 except for the following variations. At day 6, mice whose tumors had reached 5 mm in diameter were randomized and grouped into the following four groups: Resquimod; PBS; H1b-ADP; H1b-ADP+Resquimod. Resquimod (10 μg) and H1b-ADP (6.2 μg) were administered intratumorally in a 20 μL volume on days 6, 8, 11 post-inoculation.
We used a CT26 tumor xenograft model to test the anti-cancer activity of H1b-ADP derivative Compounds 1 and 2. Tumor cells (2×10^5 per 100 uL CT26 cells) were inoculated subcutaneously into the right flank of BALB/c mice. At day 7, mice whose tumors had reached 3-5 mm in diameter were randomized and grouped into three groups (n=9 each group), control, Compound 1 (50 nmol), and Compound 2 (50 nmol). Injections were performed using a total volume of 20 uL at days 7, 9, and 11 post inoculation. Tumor volumes were calculated every 2 days from caliper measurements of tumor dimension using the formula (L×W^2)/2, where L is the longer measurement.

[3] = tested on: mouse liver and lung tissue; test: Chemokine and cytokine expression in liver and lung tissue after subcutaneous injection (qPCR); assay type: in vivo; settings: C57 mice, three hours
Protocol: In additional experiments, Compound 1 was injected subcutaneously into 7 week old C57 mice at concentrations of 2, 10, 50, and 200 nmol. Tissue was harvested three hours later and RNA extracted. Quantitative PCR (qPCR) was performed to determine the tissue expression levels Cxcl1, Cxcl11, IL1b, and IL6 in mouse liver (FIG. 32A) and lung (FIG. 32B) tissue. Additional chemokines and cytokines were assayed in the lung tissue.

ALPK1 [4] = target: T1, ALPK1 (Homo sapiens, UniProt Q96QP1); test: IL8 secretion in HEK293 cells (IL8 ELISA) as indicator of ALPK1 activation; settings: without FBS, 4 hours
ALPK1 [5] = target: T1, ALPK1; test: In vitro kinase assay of ALPK1-dependent TIFA phosphorylation; assay type: biochemical; settings: for phosphorylation of the ALPK1 substrate TIFA: FIG. 7, chemically-synthesized compounds
Protocol: We performed an in vitro kinase assay with H1b-ADP and H1b-ADP-6L along with ALPK1 protein (2 nM), and TIFA protein (1.6 uM) in kinase buffer containing 50 uM ATP. TIFA phosphorylation was analyzed by denaturing gel electrophoresis followed by western blotting using an anti-phosphothreonine antibody. H1b-ADP or H1b-ADP-6L was added at 2 nM, 0.4 nM, 80 pM, 16 pM, and 3 pM.
To test this, we performed an in vitro kinase reaction for ALPK1-dependent TIFA phosphorylation in the presence of either HBP or HIdA purified from E. coli containing inactivated HIdE, or in the presence of HBP and HIdA purified from the same HIdE wild-type E. coli used in the previous experiments. Phosphorylated TIFA (three concentrations, 1%, 0.2% and […]) was detected as described above by denaturing gel electrophoresis followed by Western analysis.

ALPK1 [6] = target: T1, ALPK1; test: Thermal shift assay (SYPRO Orange) for binding to ALPK1; settings: ALPK1 7 uM; 1 uM, 5 uM, 25 uM, or 125 uM
From the text: The thermal shift assay is widely used to determine the binding of a molecule to a protein of interest. The assay is based on the increase in thermal energy required for denaturation of a protein where another molecule is bound to the protein. SYPRO Orange is a fluorescent compound used in the detection of thermal shift. SYPRO Orange binds to hydrophobic surfaces of the protein, and water strongly quenches its fluorescence. When the protein unfolds, the exposed hydrophobic surfaces bind the dye, resulting in an increase in fluorescence. When another molecule is bound to the protein, an increase in the temperature required for unfolding of the protein is observed.
This assay system was used to determine whether or not chemically synthesized HBP, HMP-1bP, and H1b-ADP directly bind to ALPK1. […] Only H1b-ADP induced a shift of more than 1 degree, at each of the three highest concentrations tested, 5 uM, 25 uM, and 125 uM.

ALPK1 [7] = target: T1, ALPK1; test: Cell-free kinase assay of ALPK1 autophosphorylation (Western, anti-phospho-threonine); assay type: biochemical; settings: ALPK1 2 nM, ATP; H1b-ADP 10, 1, 0.2 nM; HBP and HMP-1bP 1, 10, 100 nM
Protocol: ALPK1 activation results in its autophosphorylation. Accordingly, we next asked whether the binding of H1b-ADP to ALPK1 was sufficient to induce ALPK1 autophosphorylation. Phosphorylation assays were performed according to standard protocols. Briefly, ALPK1 was incubated (2 nM, 25° C., 1 h) in assay buffer (20 al, 25 mM HEPES pH 7.5, 50 mM KCl, 0.1 mM EDTA, 0.1 mM EGTA, 2 mM DTT, 1.5 mM CaCl2, 10 mM MgCl2) with ATP and chemically synthesized HBP, HMP-1bP, or H1b-ADP followed by denaturing gel electrophoresis and Western analysis with an anti-phospho-threonine antibody (CST) to detect autophosphorylation of ALPK1. […] The range of concentrations of HBP and HMP-1bP used in this assay (1 nM, 10 nM, 100 nM) was 10-fold higher than that used for H1b-ADP.

ALPK1 [8] = target: T1, ALPK1; test: IL-8 and TNFα mRNA expression in HEK293 cells with control or ALPK1-directed siRNA; assay type: cell-based; set-up: ALPK1-directed small interfering RNA (siRNA) to silence ALPK1 expression in HEK293 cells; endogenous in cells; host or cells: HEK293; settings: for IL-8 mRNA expression / TNFα mRNA expression: 4 hours, control vs ALPK1-directed siRNA; for concentration required to induce IL-8 and TNFα mRNA expression: FIG. 5
Protocol: To test whether HBP, HMP-1bP, and H1b-ADP were able to induce cytokine expression in an ALPK1 dependent manner, we used an ALPK1-directed small interfering RNA (siRNA) to silence ALPK1 expression in HEK293 cells. Cells were plated (1×10^4 cells/well) into 96-well plates and transfected with either control siRNA or ALPK1-directed siRNA according to the manufacturer's protocols (Lipofectamine™ RNAiMax™, Invitrogen 13778075). Following 2 days of culture, either (1) HBP (500 uM, 100 uM, 20 uM, FIG. 2A-2B) (2) HMP-1bP (500 uM, 100 uM, FIG. 3A-3B), (3) H1b-ADP (100 nM, 20 nM, 4 nM, 0.8 nM, FIG. 4A-4B) was added to culture medium and cells were harvested 4 hours later.

[9] = Example 18: 50 nmol, injections days 7, 9, 11

T1 sequence (Q96QP1 whole entry): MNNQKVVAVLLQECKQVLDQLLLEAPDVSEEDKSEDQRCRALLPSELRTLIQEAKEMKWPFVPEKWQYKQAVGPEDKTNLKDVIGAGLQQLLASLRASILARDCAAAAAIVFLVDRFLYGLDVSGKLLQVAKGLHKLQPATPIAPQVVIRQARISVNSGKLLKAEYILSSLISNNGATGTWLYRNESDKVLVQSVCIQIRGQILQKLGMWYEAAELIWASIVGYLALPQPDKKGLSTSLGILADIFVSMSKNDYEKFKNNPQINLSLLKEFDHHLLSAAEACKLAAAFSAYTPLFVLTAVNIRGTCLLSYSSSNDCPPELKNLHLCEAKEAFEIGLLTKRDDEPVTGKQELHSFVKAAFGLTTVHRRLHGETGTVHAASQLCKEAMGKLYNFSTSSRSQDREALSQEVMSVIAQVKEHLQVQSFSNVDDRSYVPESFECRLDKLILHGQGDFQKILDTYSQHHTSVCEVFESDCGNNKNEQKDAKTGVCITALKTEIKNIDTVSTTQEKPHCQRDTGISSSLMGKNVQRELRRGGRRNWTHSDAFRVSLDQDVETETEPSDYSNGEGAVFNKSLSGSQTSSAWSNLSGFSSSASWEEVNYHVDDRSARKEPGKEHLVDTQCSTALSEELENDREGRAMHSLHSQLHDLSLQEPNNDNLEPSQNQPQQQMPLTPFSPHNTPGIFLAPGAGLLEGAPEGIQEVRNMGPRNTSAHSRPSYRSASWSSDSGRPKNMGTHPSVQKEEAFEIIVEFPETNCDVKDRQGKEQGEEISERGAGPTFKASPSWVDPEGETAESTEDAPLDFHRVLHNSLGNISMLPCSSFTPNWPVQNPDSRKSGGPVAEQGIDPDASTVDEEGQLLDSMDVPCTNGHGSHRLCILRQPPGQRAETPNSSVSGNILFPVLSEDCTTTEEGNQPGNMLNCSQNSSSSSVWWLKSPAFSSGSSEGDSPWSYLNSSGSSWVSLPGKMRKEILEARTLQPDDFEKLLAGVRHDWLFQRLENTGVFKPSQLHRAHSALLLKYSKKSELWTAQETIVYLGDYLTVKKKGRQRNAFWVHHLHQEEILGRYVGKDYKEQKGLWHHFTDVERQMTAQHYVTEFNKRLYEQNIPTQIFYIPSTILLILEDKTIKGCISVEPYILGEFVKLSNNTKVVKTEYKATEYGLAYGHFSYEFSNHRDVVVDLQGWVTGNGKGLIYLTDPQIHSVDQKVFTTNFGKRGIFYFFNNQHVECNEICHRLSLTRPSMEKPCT

Compound | tumor growth (CT26 cells; [9]) | IL8 secretion in HEK293 cells (ALPK1 [4]) | thermal shift / direct binding to ALPK1 (ALPK1 [6]) | autophosphorylation of ALPK1 (ALPK1 [7]) | phosphorylation of the ALPK1 substrate TIFA (ALPK1 [5]) | IL-8 mRNA expression (ALPK1 [8]) | TNFα mRNA expression (ALPK1 [8]) | concentration required to induce IL-8 and TNFα mRNA expression (ALPK1 [8]) | other results
Nc1ncnc2c1ncn2[C@@H]1O[C@H](COP(=O)(O)O)[C@@H](O)[C@H]1O [AMP] | – | – | – | – | – | – | – | – | phosphatase activity in serum [1]: inhibited phosphatase activity and the inhibition was AMP dose-dependent; restoration of H1b-ADP's activity in the cell based assay (ALPK1 [2]): could restore H1b-ADP's activity
CC(=O)OC[C@@H](OC(C)=O)[C@H]1O[C@@H](OP(=O)(O)OP(=O)(O)OC[C@H]2O[C@@H](n3cnc4c(N)ncnc43)[C@H](O)[C@@H]2F)[C@@H](OC(C)=O)[C@@H](OC(C)=O)[C@@H]1OC(C)=O [Compound 1, (2S,3S,4S,5R,6R)-2-(((((((2R,3S,4S,5R)-5-(6-amino-9H-purin-9-yl)-3-fluoro-4-hydroxytetrahydrofuran-2-yl)methoxy)(hydroxy)phosphoryl)oxy)(hydroxy)phosphoryl)oxy)-6-((R)-1,2-diacetoxyethyl)tetrahydro-2H-pyran-3,4,5-triyl triacetate] | reduced tumor growth | activate IL8 secretion | – | – | – | – | – | – | dose activating an inflammatory response in lung tissue [3]: 200 nmol; dose activating an inflammatory response in liver tissue ([3]; 2 nmole = 1.2 μg): ≤ 2 nmol
Nc1ncnc2c1ncn2[C@@H]1O[C@H](COP(=O)(O)OP(=O)(O)O[C@@H]2OC([C@H](O)CO)[C@@H](O)C(O)C2O)C(F)C1O (stereo partly drawn) [Compound 2, Adenosine-3′-fluoro-5′-(D-glycero-β-D-mannoheptopyranosyl) diphosphate] | reduced tumor growth | activate IL8 secretion | – | – | – | – | – | – | –
Nc1ncnc2c1ncn2[C@@H]1O[C@H](COP(=O)(O)OP(=O)(O)O[C@@H]2O[C@H]([C@@H](O)CO)[C@@H](O)[C@H](O)[C@@H]2O)[C@@H](O)[C@H]1O [Compound H1b-ADP-6L, L-glycero-D-manno-heptose-1β-ADP] | – | – | – | – | – | – | – | – | TIFA phosphorylation (ALPK1-dependent signaling) (ALPK1 [5]; ALPK1 2 nM, TIFA 1.6 uM, 50 uM ATP, 2 nM to 3 pM): activated ALPK1-dependent signaling in a manner similar to H1b-ADP
O=P(O)(O)OC[C@@H](O)[C@H]1O[C@@H](OP(=O)(O)O)[C@@H](O)[C@@H](O)[C@@H]1O [HBP, D-glycero-β-D-manno-heptose 1,7-bisphosphate] | – | – | Neither HBP nor HMP-1bP were able to induce a thermal shift | not | only in the presence of H1b-ADP | increased in an ALPK1-dependent manner | increased in an ALPK1-dependent manner | 100 µM | anti-tumor activity in a murine tumor model (CT26 cells; summary statement): not
O=P(O)(O)O[C@@H]1O[C@H]([C@H](O)CO)[C@@H](O)[C@H](O)[C@@H]1O [HMP-1bP, D-glycero-β-D-manno-heptose-1-phosphate] | – | – | Neither HBP nor HMP-1bP were able to induce a thermal shift | not | only in the presence of H1b-ADP | increased in an ALPK1-dependent manner | increased in an ALPK1-dependent manner | 100 µM | tumor growth (CT26 cells; intratumoral, days 6, 8, 10, 12, 14, HMP-1bP 580 ug, H1b-ADP 1.2 ug): not
